Experimental findings from patent EP0523356B1, “Burst-test” (Orpegen Medizinisch-Molekularbiologische …, priority 1991, dated 1993) are described below.

The subject of the experiment is Granulozyten. In words: Oxidative burst test in heparinised whole blood (dihydrorhodamine 123, flow cytometry). The format is cell-based, menschlichen. Conditions: Erwartungswerte, 10 + 10 Minuten Inkubation at 37°C, heparinised whole blood 100 µl. The procedure:
Frisch entnommenes, heparinisiertes Vollblut wird gemixt (Vortex) und auf dem Boden eines 5 ml-Röhrchens aliquotiert, wobei pro Ansatz 100 µl verwendet werden. Durch EDTA oder Citrat stabilisiertes Vollblut ist für das Verfahren nicht sonderlich geeignet. Die Blutproben werden vor der Zugabe der Bakterien ca. 15 Minuten im Eiswasserbad inkubiert, um auf 0°C abgekühlt zu sein.
Die vorgekühlten E.coli-Bakterien (1 x 10^9 pro ml) werden gut gemixt (Vortex) und 20 µl pro Ansatz zum Vollblut pipettiert ("high control", Röhrchen 1). Gegebenenfalls können 20 µl N-Formyl-Met-Leu-Phe-Gebrauchslösung als "low control" in ein weiteres Röhrchen (Röhrchen 2) gegeben werden (Endkonzentration 10^-6 mol/l). 20 µl Waschlösung (phosphatgepufferte Salzlösung ohne Calcium^2+ und Magnesium^2+ mit 0,02 % EDTA) werden als Negativkontrolle in ein drittes Röhrchen (Röhrchen 3) gegeben.
Alle Röhrchen werden nochmals gemixt (Vortex) und 10 Minuten lang bei 37°C im Wasserbad unter starkem Schütteln inkubiert (bei einer kinetischen Messung können auch längere Inkubationszeiten erforderlich sein).
Nach 10 Minuten erfolgt die Zugabe von 20 µl frisch angesetzter Substratlösung und Mischen (Vortex) (Endkonzentration 0,2 µg Dihydrorhodamin 123 auf 100 µl Körperflüssigkeit). […]

`CSCC[C@H](NC=O)C(=O)N[C@@H](CC(C)C)C(=O)N[C@@H](Cc1ccccc1)C(=O)O` [N-Formyl-Met-Leu-Phe]: the “mittlere Fluoreszenzintensität (4 Dekaden, 1024 Kanäle)” value (green fluorescence (FL1) of the oxidising cells, stimulant: 20 µl E.coli 1 x 10^9 pro ml or N-Formyl-Met-Leu-Phe Endkonzentration 10^-6 mol/l) is given as 10-100. Moreover, under “stimulant: 20 µl E.coli 1 x 10^9 pro ml or N-Formyl-Met-Leu-Phe Endkonzentration 10^-6 mol/l6 mol/l”, the “% oxidierende Granulozyten” value is 1-5%.
